Test results taken from patent US20040147595A1, “Biofilm degrading or sloughing compositions and methods” (priority 2001, published 2004).

How the values were obtained:
[1] = test system: OHHL induced LuxR dependent expression of GFP; assay: Quantitative furanone inhibition of the LuxR-PluxI-gfp(ASV) quorum sensor in E. coli MT102 (pJBA89); type: cell-based, Escherichia coli; details: gradient of furanone concentration lowering RFU to 40% versus OHHL concentration (5-100 nM)
Text: To analyse the AHL antagonist activity of the halogenated furanones we tested the compounds for their ability to inhibit 3oxo-C6-HSL (OHHL) induced LuxR dependent expression of green fluorescent protein (GFP) from a Pgfp(ASV) fusion in the AHL monitor strain E. coli MT102 harbouring pJBA89 (Andersen et al., 2001).
The medium used is minimal ABT containing 0.5% glucose and 0.5% Casamino Acids. In growing cultures of the AHL monitor strain E. coli Mt102 (pJBA89) encoding […] and a P-gfp(ASV) fusion, GFP(ASV) is produced immediately upon OHHL addition specifically from the LuxR controlled P-gfp(ASV) fusion gene. The sensitivity is high (responsive to as little as 3 nm OHHL) and due to the instability built into the GFP (ASV) variant there is no background production of green fluoroscence (Andersen et al., 2001). GFP expression from the AHL monitor strain E. coli MT102 (pJBA89) and the control strain MT102 harbouring the lacl^q, Plas-gfp(ASV) IPTG inducible expression system pMH197 was quantified in the following way. Overnight cultures were diluted four fold in fresh medium and incubated for one hour at 30° C. while OHHL and furanone compounds in the required concentrations were mixed in the wells of microtiter dishes. […] When absolute values were required, green fluoroscence was measured on a fluorometer (model RF-1501; Shimadzu, Tokyo, Japan) act at an excitation wavelength of 475 nm and emission detection at 515 nm. To establish a correlation between the colour code of the ARGUS-50 captured images and green fluorescence, both colour and relative fluorescence units (RFU), were determined for a dilution series of an E. coli MT102 (pJBA89) culture which had been incubated with […]. […]
From the second plot, the furanone concentration reducing the relative activity to 40% (ID60) is determined for each OHHL concentration. […]
To enable easy comparison of the strength of the furanones, an inhibition index (IIX40) is calculated for each furanone compound. […]

bacterial growth = assay: Bacterial growth inhibition at the concentrations tested in the quorum sensor assay; type: cell-based
Text: The natural compound 2 has an IIX40 0.75 where as compound 30 and […] have IIX40 of 0.01 and 0.51 respectively.

[2] = test system: V. fisheri lux quorum sensing system (LuxR); assay: V. fisheri luxR PluxI-gfp(ASV) reporter in PAO-JP2 biofilm; type: cell-based, Pseudomonas aeruginosa; details: 250 nM OHHL
Description: P. aeruginosa biofilms. Biofilms were grown at 30° C. in three-dimensional flow cells (Christensen et al., 1999) with individual channel dimensions of 0.3×4×40 mm supplied With ABt minimal medium supplemented with 2% LB. The flow system was assembled and prepared as described by Christensen et al. (1999). The substratum consisted of a microscope glass coverslip (Knittel 24×50 mm st1, Knittel Glaser, Braunschweig, Germany). Cultures for inoculation of the flow channels were prepared in the following way: P. aeruginosa strains were streaked on LB plates with the appropriate antibiotics and incubated for 24 h at 37° C. From each plate a single colony was used for inoculation of 10 ml ABt with 10% LB. The cultures were grown at, 30° C. for 18 h before they were diluted to an OD600 nm of 0.1 in sterile 0.9% NaCl and used for inoculation of the flow channels. Medium flow was kept at a constant rate of 3 mL/h, equivalent to a mean flow velocity of 0.7 mm/s, using a Watson-Marlow 205S peristaltic pump (Watson-Marlow, Falmouth, England). Biofilms were grown for 24 hours before being shifted to media containing AHL and furanone.
Scanning confocal laser microscopy (SCLM). Microscopic inspection and image acquisition were performed an a scanning confocal laser microscope (model TCS4D, Leica Lasertechnik GmbH, Heldelberg, Germany) equipped with a 63×/1.32-0.6 oil objective. The microscope was equipped with a motorized and programmable xy-stage, which was used for monitoring single colonies during the biofilm experiments. At the beginning of each online experiment, the microscope was programmed to track single randomly selected microcolonies; the sensitivity of photo multipliers and the laser intensity were adjusted and thereafter kept constant through out the duration of the experiments. Image scanning was carried out using the 488 nm and 568 nm lines of an Ar/Kr laser for detection of Gfp and Rfp, respectively. Visualization of captured images was performed using the IMARIS software package (Bitplane AG, Zúrich, Switzerland) running on a Silicon Graphics Indigo 2 workstation (Silicon Graphics, Mountain View, Calif. USA).
Repression of LuxR-activated quorum sensing controlled gene transcription. We speculated that the AHL-antagonstic properties of furanone 56 was specific to the P. aeruginosa las quorum sensing system. To test this, a previously published quorum sensing reporter based on the Vibro fisherf luxR gene and Pluxl-gfp(ASV) (Anderson at al, 2001; Wu et al, 2000) was transferred to PAO-JP2.

[3] = test system: OHHL induced LuxR dependent expression of GFP; details: E. coli MT102 (pJBA89); cited from earlier work

SMILES | inhibition index (IIX40) [1] | concentration slightly above which growth was inhibited (bacterial growth) | green fluorescence of biofilm [2] | lowest OHHL concentration the monitor strain responds to [3] [nm]
O=C1C=C(Br)/C(=C/Br)O1 [Compound 30] | 0.01 mole of furanone per mmole of | above 10 nm | – | –
CCCC(=O)CC(=O)N[C@H]1CCOC1=O [OHHL, N-[3-oxo-hexanoyl]-L-homoserine lactone, reference compound] | – | – | developed within one hour | 3
